Measurements reported in PubChem BioAssay AID1207 (NMMLSC, 2008).
Active and inactive are the calls of the source.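 How the source made its calls: active means score above 15, the percent gain in GFP-over-time curve area versus untreated cells across six hours; inactive means the rest.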 Peptide text beside a SMILES is read from it. * marks the point of attachment. Cbz = O=C(OCc1ccccc1)*

System: yeast RJD 2456 GFP degradation, flow cytometry
Experiment: PubChem AID 1207
Settings: at 150 µM; hits give high values

SMILES | GFP remaining
CC(=O)N1C(=O)C(=C2C=C(C)OC(C)=C2)c2ccccc21 | 0.705% (inactive)
CC(C)C[C@@H](C=O)NC(=O)[C@H](CC(C)C)NC(=O)[C@H](CC(C)C)NC(=O)OCc1ccccc1 (Cbz-Leu-Leu-Leu-aldehyde) | 1.91% (inactive)
